From patent publication US20130274247A1 (priority 2012, published 2013)
Where two headings read alike, the source gives them in different places.

Experiments:
in vivo = assay: in vivo; parameters: species or system cat; conditions: for AUC(0-inf) / CL/F / Cmax / Tmax / Vd/F: both sexes
Description: In this prospective pharmacokinetic study, 6 client-owned stable CKD cats, 2 each from International Renal Interest Society (IRIS) stages II, III and IV, […] and 6 age-matched (within 6 months) healthy geriatric control cats (AMC) were enrolled by stratified convenience sampling. There were 4 spayed females and 2 neutered males in the CKD group and 3 spayed females and 3 neutered males in the AMC group. […] Diagnostic tests required before enrollment included a minimum database consisting of serum biochemistry profile, CBC, urinalysis, urine culture, blood pressure, and serum total thyroxine concentration. […] Exclusion criteria included other systemic illnesses, complications of CKD such as hypertension, pyelonephritis or ureteral obstruction, or decompensation of CKD requiring hospitalization and IV fluid therapy. The project was approved by the Institutional Animal Care and Use Committee at Colorado State University, and all owners gave written informed consent before participation. […] Samples were centrifuged within 10 minutes of collection and serum was harvested and stored at —80° C. until analysis. […] Pharmacokinetic analysis was performed using a non-compartmental method. Area under the curve to infinity (AUC∞), disappearance half-life (t½^λ), time to maximum serum concentration (Tmax), and maximum serum concentration (Cmax) were calculated. […] The terminal elimination rate was used for estimating the accumulation factor as the applicable kel, and the dosing interval (T) was set at 24 or 48 hours. Comparison of pharmacokinetic parameters between the CKD and AMC cat groups was performed using a Mann-Whitney U-test. Prism software© was used for all analyses.

CKD cats = assay: Effect of mirtazapine on weight, appetite, activity and vomiting in CKD cats; type: in vivo, cat; conditions: 1.88 mg every other day for three weeks
Description: FIG. 1. […] FIG. 2. […] FIG. 3. […] FIG. 4.

[1] = Stability of compounded 1.88 mg mirtazapine capsules (LC/MS/MS); type: physicochemical; conditions: compounded 1.88 mg capsules
Description: The method used is guaranteed to produce accurate compounding to within 10% of the target dose.

[2] = cited from earlier work
young normal cats = conditions: cited from earlier work
[3] = humans; cited from earlier work
cats = conditions: cited from earlier work

**Q.** What does the source list for `CN1CCN2c3ncccc3Cc3ccccc3C2C1` (stereo not shown) [mirtazapine]?
**A.** difference in AUC∞ between AMC cats and CKD cats (in vivo): statistically significant difference; AUC(0-inf) (in vivo; po, 1.88 mg, Mean ± SD): 590 ± 185 ng·h/mL; AUC(0-inf) (in vivo; po, 1.88 mg, Median): 561 ng·h/mL; CL/F (in vivo; po, 1.88 mg, Mean ± SD): 13.2 mL/min/kg; CL/F (in vivo; po, 1.88 mg, Median): 12.2 mL/min/kg; Cmax (in vivo; po, 1.88 mg, Mean ± SD): 79.6 ± 21.7 ng/mL; Cmax (in vivo; po, 1.88 mg, Median): 83.6 ng/mL; Tmax (in vivo; po, 1.88 mg, Mean ± SD): 2 ± 1.5 h; Tmax (in vivo; po, 1.88 mg, Median): 1 h; Vd/F (in vivo; po, 1.88 mg, Mean ± SD): 13.9 ± 3.2 L; Vd/F (in vivo; po, 1.88 mg, Median): 14.4 L; CL/F, Mean ± SD (in vivo; both, po, 1.88 mg): 10.2 mL/min/kg; CL/F, Median (in vivo; both, po, 1.88 mg): 10 mL/min/kg; Cmax, Mean ± SD (in vivo; both, po, 1.88 mg): 110.6 ± 30.8 ng/mL; Cmax, Median (in vivo; both, po, 1.88 mg): 109.5 ng/mL; AUC∞, Mean ± SD (in vivo; po, 1.88 mg): 866.5 ± 257.9 ng·h/mL; AUC∞, Median (in vivo; po, 1.88 mg): 828.4 ng·h/mL; Vd/F, Mean ± SD (in vivo; po, 1.88 mg): 13.6 ± 2.0 L; Vd/F, Median (in vivo; po, 1.88 mg): 13.4 L; Effect on weight (CKD cats; p=0.002): statistically significant increase; Effect on activity (CKD cats; p=0.02): statistically significant increase; Effect on appetite score (CKD cats; p=0.02): statistically significant increase; Effect on vomiting (CKD cats; p=0.047): statistically significant decrease; stability as formulated [1]: at least 6 months; mean AUC ([2]; normal cats, previously reported): 397 ng/mL/h; mean CL/F ([2]; young healthy cats): 18.3 mL/min/kg; food consumption as compared to placebo (young normal cats; 1.88 mg/cat): increased food consumption; food consumption as compared to placebo (young normal cats; 3.75 mg/cat): increased food consumption; appetite stimulation (young normal cats; dose of 1.88 mg): significantly stimulates appetite; AUC in young men compared to women [3]: lower; other reported adverse effects (hyperexcitability, muscle tremors) (cats): mild and dose dependent
